Patent US9751919B2, “Antimicrobial compositions comprising a hyaluronic acid binding peptide and a β-lactam antibiotic” (priority 2012, dated 2017)
Entries after “also recorded” stand apart in the source; their conditions may differ.

How the values were obtained:
Type in all cases: cell-based
Gram-negative bacilli = assay: Checkerboard assay, panel statement; conditions: with gentamicin, levofloxacin, piperacillin-tazobactam, meropenem and colistin; all Gram-negative bacilli tested
Procedure: (§1) The checkerboard assays were carried out as described by Eliopoulos and Moellering (Chapter 9) in Antibiotic in Laboratory Medicine, Lorian Ed. 1996 as well as Bonapace et al. Diagnostic Microbiology and Infectious Diseases 2002; 44:363-366 and Bonapace et al. Diagnostic Microbiology and Infectious Diseases 2000; 38:43-50. In brief, checkerboard assays were performed in 96 well microtitre trays using an 8-by-8 well configuration. […] 96-well custom designed microtitre plates contained 100 ul/well of cation adjusted Mueller-Hinton broth (eg. for Enterobacteriaceae) with or without lysed horse blood (2-5% V/V) [eg. for S. pneumoniae] and were inoculated to achieve a final concentration of approximately 5×10^5 CFU/ml and incubated in ambient air for 24 hours prior to reading. Colony counts were performed periodically to confirm inocula. Quality control was performed every two weeks using a variety of ATCC QC organisms including; S. pneumoniae 49619, S. aureus 29213, E. faecalis 29212, E. coli 25922 and P. aeruginosa 27853. For all antimicrobials as well as PEP35, CLSI criteria was used.
(§2) The fractional inhibitory concentration index (FIC index) was used to interpret synergy, antagonism or additivity/indifference. FIC index=FIC of drug A+FIC of drug B where:
(§3) The FIC of drug A and drug B is calculated as follows, FIC drug A=MIC of drug A in combination/MIC of drug A alone and FIC of drug B=MIC of drug B in combination/MIC of drug B alone. Synergy is defined as FIC index ≦0.5, additivity/indifference FIC >0.5-4 and antagonism FIC index >4.
(§4) Antimicrobials used included PEP35, cefazolin, ceftriaxone, vancomycin, linezolid, tigecycline and daptomycin versus Gram-positive cocci and PEP35, gentamicin, levofloxacin, piperacillin/tazobactam, meropenem and colistin (Polymyxin E) versus Gram-negative bacilli. These agents were obtained as laboratory grade powders from their respective manufacturers. Stock solutions were prepared and dilutions made as described by the Clinical Laboratory Standards Institute (2005 CLSI).
(§5) Organisms included Gram-positive cocci (2 strains of each): Methicillin-susceptible Staphylococcus aureus (MSSA), community-associated (CA) and healthcare-associated (HA) methicillin-resistant Staphylococcus aureus (MRSA), vancomycin-intermediate Staphylococcus aureus (VISA), vancomycin-resistant Staphylococcus aureus (VRSA), methicillin-resistant Staphylococcus epidermidis (MRSE), Streptococcus pyogenes, Streptococcus agalactiae, Streptococcus pneumoniae, Enterococcus faecalis, Enterococcus faecium and vancomycin-resistant enterococcus (VRE). […] MIC testing, following two subcultures from frozen stock were determined by the CLSI 2005 approved broth microdilution method.

Gram-positive cocci = assay: Checkerboard assay, panel statement
Procedure: as §1, §2, §3, §4, §5

[1] = tested on: MRSA, VISA, VRSA and E. coli; assay: MIC, agent alone, panel statement; conditions: CA-MRSA and HA-MRSA (checkerboard strains of Table 11)
Procedure: VISA (strains 92, 95 and 96), VRSA (strains 105 and 106) and E. coli (strain 69717) isolates were also tested. One MSSA was used as a control. All MICs were assessed using CLSI guidelines. Also assessed was the activity of cefazolin, ceftriazone, meropenem, and a piperacillin/tazobactam combination antibiotic. Minimum inhibitory concentration (MIC) is the lowest concentration of an antimicrobial that will inhibit the visible growth of a microorganism after incubation.
Antimicrobial Susceptibility Testing: A custom designed panel of antimicrobials was created. The panel included: PEP35, penicillin, piperacillin/tazobactam, cefazolin, ceftriaxone, meropenem, clarithromycin, clindamycin, gentamicin, amikacin, vancomycin, ciprofloxacin, levofloxacin, moxifloxacin, linezolid, trimethoprim/sulfamethoxazole and doxycycline. These agents were obtained as laboratory grade powders from their respective manufacturers. Stock solutions were prepared and dilutions made as described by the Clinical Laboratory Standards Institute (2005 CLSI). Following two subcultures from frozen stock the MICs of the antimicrobial agents for the isolates were determined by the CLSI 2005 approved broth macrodilution method. Briefly, test tubes containing doubling antibiotic dilutions (2 ml per tube) of cation adjusted Mueller-Hinton broth (eg. for Enterobacteriaceae) with or without lysed horse blood (2-5% V/V) [eg. for S. pneumoniae] were inoculated to achieve a final concentration of approximately 5×10^5 CFU/ml and incubated in ambient air for 24 hours prior to reading. Colony counts were performed periodically to confirm inocula. Quality control was performed every two weeks using a variety of ATCC QC organisms including; S. aureus 29213, E. faecalis 29212, E. coli 25922 and P. aeruginosa 27853. For all antimicrobials as well as PEP35, CLSI criteria were used.

LKQKIKHVVKLKVVVKLRSQLVKRKQN (listed as Mus sp.) [PEP35]
interaction (in words) (Gram-negative bacilli): did not demonstrate antagonism or synergy; also recorded: additive | interaction (in words) (Gram-positive cocci; with cefazolin and ceftriaxone, CA-MRSA and HA-MRSA): synergistic | antagonism (in words) (Gram-positive cocci; with cefazolin, ceftriaxone, daptomycin, linezolid, tigecycline and vancomycin, any streptococci, staphylococci and enterococci tested): did not demonstrate antagonism | interaction (in words) (Gram-positive cocci; with the six antibiotics, all streptococci, staphylococci and enterococci except CA-MRSA and HA-MRSA): additive | MIC alone, range [1]: 512 to 1024 µg/mL
